{"source": "patent US20200109429A1", "about": "“Methods and Systems for Cell-Free Biodiscovery of Natural Products” (Synvitrobio, Inc., priority 2017, published 2020)", "key": {"[1]": {"conditions": "121 C for 10 min heat step; cited from earlier work"}, "E. coli RNA polymerase [2]": {"molecular_target": "T1, E. coli RNA polymerase (Escherichia coli, UniProt P0A8T7+P0A8V2)", "T1 sequence (P0A7Z4 whole entry)": "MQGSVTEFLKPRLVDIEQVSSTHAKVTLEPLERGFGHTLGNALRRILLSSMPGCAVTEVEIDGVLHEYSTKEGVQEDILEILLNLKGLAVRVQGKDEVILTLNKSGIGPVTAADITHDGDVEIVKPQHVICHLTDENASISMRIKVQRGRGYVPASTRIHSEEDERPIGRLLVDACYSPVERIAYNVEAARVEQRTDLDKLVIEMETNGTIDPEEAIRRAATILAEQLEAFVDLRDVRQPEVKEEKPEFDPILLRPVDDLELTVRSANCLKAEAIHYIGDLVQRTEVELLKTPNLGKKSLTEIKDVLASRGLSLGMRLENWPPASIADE", "T1 sequence (P0A8V2 whole entry)": "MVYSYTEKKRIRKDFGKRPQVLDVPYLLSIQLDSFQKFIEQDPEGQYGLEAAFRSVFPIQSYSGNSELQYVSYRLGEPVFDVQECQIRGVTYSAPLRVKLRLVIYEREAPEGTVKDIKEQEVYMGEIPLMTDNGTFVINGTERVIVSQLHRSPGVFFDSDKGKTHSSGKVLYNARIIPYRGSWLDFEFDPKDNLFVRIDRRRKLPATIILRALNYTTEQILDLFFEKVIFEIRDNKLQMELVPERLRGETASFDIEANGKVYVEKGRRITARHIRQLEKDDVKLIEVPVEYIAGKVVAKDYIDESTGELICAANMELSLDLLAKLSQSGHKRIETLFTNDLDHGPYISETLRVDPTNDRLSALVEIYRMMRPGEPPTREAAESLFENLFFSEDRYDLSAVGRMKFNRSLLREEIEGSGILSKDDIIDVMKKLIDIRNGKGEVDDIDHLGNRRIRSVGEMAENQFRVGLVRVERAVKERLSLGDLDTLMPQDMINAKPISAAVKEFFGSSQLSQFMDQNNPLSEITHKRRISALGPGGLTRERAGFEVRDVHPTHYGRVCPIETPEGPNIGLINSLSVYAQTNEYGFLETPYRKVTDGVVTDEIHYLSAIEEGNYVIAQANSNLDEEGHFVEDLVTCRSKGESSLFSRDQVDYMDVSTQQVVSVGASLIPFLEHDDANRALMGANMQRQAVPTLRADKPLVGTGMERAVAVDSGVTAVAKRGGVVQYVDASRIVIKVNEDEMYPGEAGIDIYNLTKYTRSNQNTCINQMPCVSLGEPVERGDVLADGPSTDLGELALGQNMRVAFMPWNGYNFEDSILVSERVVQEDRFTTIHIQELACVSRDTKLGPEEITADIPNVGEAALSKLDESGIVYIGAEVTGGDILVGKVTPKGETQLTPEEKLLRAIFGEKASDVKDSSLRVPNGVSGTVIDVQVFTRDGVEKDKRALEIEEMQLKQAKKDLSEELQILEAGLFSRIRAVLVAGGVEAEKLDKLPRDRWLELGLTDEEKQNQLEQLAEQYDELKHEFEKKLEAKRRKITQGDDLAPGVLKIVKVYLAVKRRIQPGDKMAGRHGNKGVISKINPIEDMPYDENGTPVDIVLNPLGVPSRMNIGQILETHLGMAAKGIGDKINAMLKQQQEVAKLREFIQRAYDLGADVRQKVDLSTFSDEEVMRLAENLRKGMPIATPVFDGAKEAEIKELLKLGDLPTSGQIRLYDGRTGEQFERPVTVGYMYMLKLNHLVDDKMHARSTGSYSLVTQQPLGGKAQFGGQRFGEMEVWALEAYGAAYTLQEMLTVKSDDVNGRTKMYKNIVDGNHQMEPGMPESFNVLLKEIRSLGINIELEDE", "T1 sequence (P00579 whole entry, further chain)": "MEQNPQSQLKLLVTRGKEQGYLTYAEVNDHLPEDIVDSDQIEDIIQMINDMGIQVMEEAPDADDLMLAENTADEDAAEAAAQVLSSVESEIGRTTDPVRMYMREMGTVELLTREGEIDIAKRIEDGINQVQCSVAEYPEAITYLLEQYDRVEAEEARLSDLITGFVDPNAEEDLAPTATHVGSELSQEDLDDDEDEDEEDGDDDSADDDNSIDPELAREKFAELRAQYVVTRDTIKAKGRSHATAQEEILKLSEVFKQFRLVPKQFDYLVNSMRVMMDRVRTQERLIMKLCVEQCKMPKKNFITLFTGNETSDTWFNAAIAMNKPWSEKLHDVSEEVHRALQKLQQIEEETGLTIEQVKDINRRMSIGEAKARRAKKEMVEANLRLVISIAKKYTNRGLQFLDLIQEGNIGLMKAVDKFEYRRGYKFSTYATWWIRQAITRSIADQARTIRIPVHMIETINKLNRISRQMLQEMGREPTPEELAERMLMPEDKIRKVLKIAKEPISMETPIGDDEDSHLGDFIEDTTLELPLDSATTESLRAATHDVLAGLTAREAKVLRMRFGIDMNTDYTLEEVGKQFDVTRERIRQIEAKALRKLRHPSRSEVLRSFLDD", "T1 sequence (P0A8T7 whole entry)": "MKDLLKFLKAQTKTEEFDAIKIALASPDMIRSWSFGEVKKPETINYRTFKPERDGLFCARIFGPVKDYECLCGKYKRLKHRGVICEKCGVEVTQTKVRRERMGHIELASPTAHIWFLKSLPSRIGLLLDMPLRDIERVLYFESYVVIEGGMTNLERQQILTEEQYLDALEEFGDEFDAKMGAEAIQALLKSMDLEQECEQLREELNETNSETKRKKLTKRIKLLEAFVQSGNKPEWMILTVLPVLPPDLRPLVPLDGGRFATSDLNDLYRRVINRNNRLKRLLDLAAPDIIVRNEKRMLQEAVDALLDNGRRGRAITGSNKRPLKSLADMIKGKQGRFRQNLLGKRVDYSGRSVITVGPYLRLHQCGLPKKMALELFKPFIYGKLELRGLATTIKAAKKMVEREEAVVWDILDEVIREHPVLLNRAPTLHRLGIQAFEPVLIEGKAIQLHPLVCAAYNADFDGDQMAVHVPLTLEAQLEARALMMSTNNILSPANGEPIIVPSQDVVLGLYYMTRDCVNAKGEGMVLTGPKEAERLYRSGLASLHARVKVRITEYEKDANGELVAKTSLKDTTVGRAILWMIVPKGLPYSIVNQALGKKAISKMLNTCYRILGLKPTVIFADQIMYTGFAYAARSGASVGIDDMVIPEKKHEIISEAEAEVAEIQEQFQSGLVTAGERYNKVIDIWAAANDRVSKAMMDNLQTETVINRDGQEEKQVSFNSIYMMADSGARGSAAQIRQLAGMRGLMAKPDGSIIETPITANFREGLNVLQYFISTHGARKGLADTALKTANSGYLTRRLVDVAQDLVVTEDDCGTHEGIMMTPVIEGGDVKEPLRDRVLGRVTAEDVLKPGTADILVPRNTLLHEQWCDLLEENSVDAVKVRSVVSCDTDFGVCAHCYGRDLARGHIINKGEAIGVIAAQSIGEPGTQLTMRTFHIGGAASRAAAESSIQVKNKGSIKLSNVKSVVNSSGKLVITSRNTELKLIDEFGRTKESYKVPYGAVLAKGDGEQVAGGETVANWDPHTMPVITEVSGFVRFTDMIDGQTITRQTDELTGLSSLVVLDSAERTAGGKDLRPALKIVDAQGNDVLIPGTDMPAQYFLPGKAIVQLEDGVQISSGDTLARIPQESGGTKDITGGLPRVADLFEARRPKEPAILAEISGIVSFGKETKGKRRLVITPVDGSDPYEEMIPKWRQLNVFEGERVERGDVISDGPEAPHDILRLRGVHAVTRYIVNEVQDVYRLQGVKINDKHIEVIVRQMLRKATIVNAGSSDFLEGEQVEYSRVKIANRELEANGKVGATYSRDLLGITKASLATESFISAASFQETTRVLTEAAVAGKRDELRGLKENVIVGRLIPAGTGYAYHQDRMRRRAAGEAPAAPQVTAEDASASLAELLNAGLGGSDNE", "T1 sequence (P0A800 whole entry, further chain)": "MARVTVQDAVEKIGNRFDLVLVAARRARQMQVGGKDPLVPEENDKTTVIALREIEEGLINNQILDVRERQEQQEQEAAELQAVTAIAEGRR", "assay_type": "biochemical", "design": "endogenous in cells; host or cells: E. coli cell-free lysate (extract eZS6 or eAC15, prepared per Sun et al. 2013)", "conditions": "lasso cluster co-expressed with sigma70 GFP reporter in E. coli cell-free system", "quoted_text": "All reactions contain 40019 in plasmid form at 2.66 nM, and the reaction is done in E. coli extract “eZS6” at 25% lysate, 75% buffer concentration, prepared as listed in (Sun et al., 2013) or “eAC15” at 30% lysate, 70% buffer concentration. GFP concentration was kept at 2 nM, and the other components kept at a total of 6 nM to control for competition affects.\nThese are run in a E. coli-based cell-free lysate system in different concentrations, as listed by nM concentrations described in the chart, with all reactions containing 4 nM sigma70-UTR1-GFP and 3.5 μM gamS to protect linear templates.\nOur expression system incorporates these coding sequences individually with a sigma70 promoter, UTR and terminator. […] A GFP construct (40019 in linear) was assembled in the same way. Linear DNAs were generated either by PCR amplification from plasmid or the DNA assemblies themselves. We used 3.5 μM GamS to prevent template degradation in E. coli lysate. Reactions were run at 10 μl scale in a 384-well format. The reaction is done in E. coli extract “eZS6” at 25% lysate, 75% buffer concentration, prepared as listed in (Sun et al., 2013). Timecourses of GFP intensity were taken, and 12 hr endpoints were used to generate the heatmap. GFP intensity of lasso-cluster-containing reaction was normalized to their paired negative controls.\nWe expressed our GFP construct in the same reactions as our lasso constructs. GFP (4009 in linear) was expressed at 4 nM and the lasso cluster genes at 0.6 nM."}, "E. coli RNA polymerase [3]": {"molecular_target": "T1, E. coli RNA polymerase", "conditions": "has been shown previously; cited from earlier work"}, "Salmonella": {"test_system": "Salmonella", "conditions": "mouse models; cited from earlier work"}, "E. coli [4]": {"test_system": "E. coli", "assay_type": "cell-based", "conditions": "purified microcin J25 added to cellular reactions, E. coli cell death", "description": "(A) Cell-free assay of mccj25 activity. […] (B) Inhibition of E. coli in vivo growth by purified microcin J25. Data, final concentrations.\nIt is seen in FIG. 7B that adding purified microcin J25 to cellular reactions causes cell death with a MIC of 0.1 uM. If microcin J25 produced in cell-free systems is at high enough concentration, those skilled in the art will recognize that the MIC curve for killing live E. coli will be the similar. However, avoiding phage in the reaction is essential to ensure that the MIC is accurate and not caused by propogation of infecting phage carried over in a typical cell-free reaction that is contaminated with phage."}, "E. coli [5]": {"test_system": "E. coli", "conditions": "cited from earlier work"}, "[6]": {"assay_type": "in vitro ADME, E. coli", "description": "Linear constructs were expressed in 10 μl cell free reactions with 2% flurotect (a tRNA carrying a BODIPY labelled lysine) and 8 nM DNA constructs for MBP-A or MBP (1065, 1066). 2 μl of these reactions were prepared in 20 μl sample buffer (50 mM bis-Tris, 2% SDS, 10% glycerol) and run on a 4-12% bis-tris PAGE gel (ThermoFisher Scientific) at 200V for 20 min.\nTo stabilize mcjA, the peptide can be tagged either on the N terminus or the C terminus as a fusion protein that provides a stable domain that prevents proteolysis of mcjA. A linker and/or targeting region can be added to remove the tag. In an example, we tag mcjA with a maltose binding protein (MBP), generating a construct 1065 (SEQ ID NO.: 19) and compare the expression of 1065 to a wildtype MBP, 1066 (SEQ ID NO.: 20). In a SDS-PAGE gel expressing both constructs in FIG. 18, the expressed fusion protein was stable and easily visualized on a gel."}}, "note": "Where two headings read alike, the source gives them in different places. Where a SMILES comes first, the peptide text is derived from it. Bridges are numbered along the chain shown (N, C = ends).", "data": [{"molecule": "CC[C@H](C)[C@H](NC(=O)CNC(=O)[C@@H](NC(=O)[C@H](Cc1ccccc1)NC(=O)[C@H](Cc1ccc(O)cc1)NC(=O)[C@@H]1CCC(=O)NCC(=O)NCC(=O)N[C@@H](C)C(=O)NCC(=O)N[C@@H](Cc2cnc[nH]2)C(=O)N[C@@H](C(C)C)C(=O)N2CCC[C@H]2C(=O)N1)C(C)C)C(=O)NCC(=O)N[C@H](C(=O)N1CCC[C@H]1C(=O)N[C@H](C(=O)N[C@@H](CO)C(=O)N[C@@H](Cc1ccccc1)C(=O)N[C@@H](Cc1ccc(O)cc1)C(=O)NCC(=O)O)[C@@H](C)CC)[C@@H](C)O", "note": "[microcin J25] (GGAGHVPEYFVGIGTPISFYG-OH; lactam N-8)", "values": [{"measurement": "heat stability", "setting": "[1]", "result": "heat-stable"}]}, {"molecule": "klebsidin", "values": [{"measurement": "knockdown of GFP expression / native RNA polymerase", "setting": "E. coli RNA polymerase [2]", "result": "functional knockdown"}]}, {"molecule": "caulosegnin", "values": [{"measurement": "RNA polymerase inhibitory activity", "setting": "E. coli RNA polymerase [3]", "result": "not to have RNA polymerase inhibitory activity"}, {"measurement": "knockdown of GFP expression / native RNA polymerase", "setting": "E. coli RNA polymerase [2]", "result": "no effect on GFP expression"}]}, {"molecule": "CC[C@H](C)[C@H](NC(=O)CNC(=O)[C@@H](NC(=O)[C@H](Cc1ccccc1)NC(=O)[C@H](Cc1ccc(O)cc1)NC(=O)[C@@H]1CCC(=O)NCC(=O)NCC(=O)N[C@@H](C)C(=O)NCC(=O)N[C@@H](Cc2c[nH]cn2)C(=O)N[C@@H](C(C)C)C(=O)N2CCC[C@H]2C(=O)N1)C(C)C)C(=O)NCC(=O)N[C@H](C(=O)N1CCC[C@H]1C(=O)N[C@H](C(=O)N[C@@H](CO)C(=O)N[C@@H](Cc1ccccc1)C(=O)N[C@@H](Cc1ccc(O)cc1)C(=O)NCC(=O)O)[C@@H](C)CC)[C@@H](C)O", "note": "[microcin J25] (GGAGHVPEYFVGIGTPISFYG-OH; lactam N-8; C-terminus assumed)", "values": [{"measurement": "decrease in Salmonella infection", "setting": "Salmonella", "result": 3, "unit": "fold"}, {"measurement": "knockdown of GFP expression / native RNA polymerase", "setting": "E. coli RNA polymerase [2]", "result": "knocks down GFP expression"}, {"measurement": "knockdown of GFP expression / native RNA polymerase", "setting": "E. coli RNA polymerase [2]; listed as microcinJ25", "result": "functional knockdown"}, {"measurement": "MIC", "setting": "E. coli [4]", "result": 0.1, "unit": "µM"}, {"measurement": "MIC", "setting": "E. coli [5]", "result": 0.02, "unit": "µg/mL"}]}, {"molecule": "mcjA: peptide precursor (propeptide) of microcin J25 (MIKHFHFNKLSSGKKNNVPSPAKGVIQIKKSASQLTKGGAGHVPEYFVGIGTPISFYG; full-length; UniProt Q9X2V7 1-58, looked up)", "values": [{"measurement": "stability when expressed in E. coli cell-free systems", "setting": "[6]", "result": "known to degrade"}]}]}
